What is called IC50 is the concentration needed to halve the response being measured.

The values that follow come from patent US12492208B2, “Crystal of pyrimidine compound” (TAIHO PHARMACEUTICAL CO., LTD., priority 2020, dated 2025).

The test system of one assay is NCI-N87 cells. Put plainly: Growth inhibitory activity against HER2 expressing cell line (NCI-N87). It is filed as cell-based. The following applies: Homo sapiens, NCI-N87, 72 h; 3 days, CellTiter-Glo 2.0. The protocol: NCI-N87 cells as a HER2 overexpressing human stomach cancer cell line (American Type Culture Collection, Cat No. ATCC (registered trademark) CRL-5822) were suspended in an RPMI1640 medium (Wako Pure Chemical Industries, Ltd.) supplemented with 10% fetal bovine serum. Subsequently, the cell suspension was seeded in each well of a 96-well flat-bottom microplate, and was then cultured in a 5% carbon dioxide gas-containing culture vessel at 37° C. for 1 day. Thereafter, the compound (I) obtained according to the method in Synthesis Example 1 was dissolved in DMSO, and the compound was diluted to 1000 times the final concentration in DMSO. The compound (I) in the DMSO solution was diluted with the medium used in the suspension of the cells, and the obtained solution was then added to each well of the culture plate, so that the final concentration of DMSO became 0.1%. Regarding a control well, DMSO was diluted with the medium used in the suspension of the cells, and the obtained solution was then added to each well of the culture plate, so that the final concentration of DMSO became 0.1%. […] After completion of the culture for 3 days in the presence of the compound, the cells were counted using CellTiter-Glo 2.0 (manufactured by Promega) in accordance with the protocols recommended by Promega. The growth inhibition percentage was calculated according to the following equation. […]
For orientation: ATP-based viability assays read luminescence as a measure of living cells.

Another assay deals with Ba/F3-HER2insYVMA cells. The assay is described as follows: Growth inhibitory activity against HER2 exon 20 insertion mutant expressing cell line. It is filed as cell-based. To be noted: Mus musculus, 72 h, 3 days, CellTiter-Glo 2.0, read-out: HER2ex20insYVMA cell growth inhibitory activity IC50 value. The protocol: Growth inhibitory activity against the HER2 exon 20 insertion mutant was measured using Ba/F3 cells that were a mouse B lymphocyte precursor cell line, into which a human HER2 exon 20 insertion mutant gene had been introduced. The Ba/F3 cells were maintained in an RPMI-1640 medium (Thermo Fisher Scientific) supplemented with 10% fetal bovine serum (FBS), 100 U/mL penicillin, 100 μg/mL streptomycin (Thermo Fisher Scientific) and 1 ng/mL mouse interleukin-3 (mIL-3) (CST).
Upon evaluation of cell growth inhibitory activity, the Ba/F3-HER2insYVMA cells were suspended in an RPMI-1640 medium supplemented with 10% FBS, 100 U/mL penicillin, and 100 μg/mL streptomycin. The cell suspension was seeded in each well of a 96-well flat-bottom microplate, and was then cultured in a 5% carbon dioxide gas-containing culture vessel at 37° C. for 1 day. The compound (I) obtained according to the method in Synthesis Example 1 was dissolved in DMSO, and was then diluted with DMSO or the medium used in the suspension of the cells. The obtained solution was then added to each well of the culture plate, so that the final concentration of DMSO became 0.2%. […] After completion of the culture for 3 days in the presence of the compound, the cells were counted using CellTiter-Glo 2.0 (manufactured by Promega), and the growth inhibition percentage was then calculated according to the following equation. […]

Assay [1] deals with T1, recombinant human HER2 exon 20 insertion mutant (A775_G776insYVMA) protein (Homo sapiens, UniProt P04626, INS775YVMA).
T1 construct: purchased SignalChem
Put plainly: Inhibitory action (in vitro) against HER2 exon 20 insertion mutant phosphorylation activity. The class given is biochemical. To be noted: pre-incubated 30 minutes, ATP 200 μM, 220 minutes; read-out: HER2ex20insYVMA inhibitory activity IC50 value. From the text:
In order to determine conditions for a method of measuring the in vitro inhibitory activity of a compound against HER2 exon 20 insertion mutant phosphorylation activity, as in the case of HER2, ProfilerPro Peptide 22 was used as a substrate. A purified recombinant human HER2 exon 20 insertion mutant (A775_G776insYVMA) protein was purchased from SignalChem. Upon the measurement of the inhibitory activity of the compound, first, the compound (I) obtained according to the method in Synthesis Example 1 was diluted stepwise with dimethyl sulfoxide (DMSO). Subsequently, the HER2 exon 20 insertion mutant protein and the compound (I) in DMSO solution (final concentration of DMSO: 5%) were added into a buffer for the kinase reaction (13.5 mM Tris (pH 7.5), 2 mM dithiothreitol, and 0.009% Tween 20), and the obtained mixture was then pre-incubated at 25° C. for 30 minutes. […] Finally, using LabChip (registered trademark) EZ Reader II (PerkinElmer), an unphosphorylated substrate peptide(S) and a phosphorylated peptide (P) were separated and detected according to microchannel capillary electrophoresis. […]

T1 sequence (P04626 with tags, fused parts or gaps INS775YVMA limits assumed): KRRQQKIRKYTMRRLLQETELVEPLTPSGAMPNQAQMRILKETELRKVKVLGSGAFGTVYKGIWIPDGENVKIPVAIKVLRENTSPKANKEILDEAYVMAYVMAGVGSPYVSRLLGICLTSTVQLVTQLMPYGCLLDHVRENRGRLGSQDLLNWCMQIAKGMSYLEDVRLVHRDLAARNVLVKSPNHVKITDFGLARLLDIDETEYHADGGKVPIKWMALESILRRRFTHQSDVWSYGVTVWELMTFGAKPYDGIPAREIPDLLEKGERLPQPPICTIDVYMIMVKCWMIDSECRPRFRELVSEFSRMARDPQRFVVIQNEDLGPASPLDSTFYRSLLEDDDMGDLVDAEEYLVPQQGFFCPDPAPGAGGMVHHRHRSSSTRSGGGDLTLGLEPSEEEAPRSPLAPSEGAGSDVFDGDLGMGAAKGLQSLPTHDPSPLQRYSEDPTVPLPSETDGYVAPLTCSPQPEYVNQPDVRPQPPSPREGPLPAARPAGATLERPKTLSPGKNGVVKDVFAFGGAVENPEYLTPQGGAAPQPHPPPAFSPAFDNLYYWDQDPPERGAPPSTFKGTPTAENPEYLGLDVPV

Take `C=CC(=O)N1C[C@H](n2c(C#CC3CC3)c(C(=O)N[C@H](C)c3ccccc3)c3c(N)ncnc32)C[C@@H]1C` [compound (I), 7-((3R,5S)-1-acryloyl-5-methylpyrrolidin-3-yl)-4-amino-6-(cyclopropylethynyl)-N—((R)-1-phenylethyl)-7H-pyrrolo[2,3-d]pyrimidine-5-carboxamide]: the figures for the IC50 (in the assay with NCI-N87 cells; with Ba/F3-HER2insYVMA cells; in assay [1]) were 9.9 nM, 29 nM and < 0.3 nM, respectively.
